Each block holds one compound with its values, some of them ahead of it.
Tests used:
[1] = system: professional sensory panel; assay: aqueous solutions in 0.5% salt and 0.05% MSG tasted by a professional sensory panel; type: in vivo
Protocol: Six aqueous solutions were prepared: A. 0.5% salt and 0.05% MSG The solutions were tasted by a professional sensory panel. Three aqueous solutions were prepared: A. 0.5% salt and 0.05% MSG The solutions were tasted by a professional sensory panel. Solution A was described as: “salty”. […] Three aqueous solutions were prepared: A. 0.5% salt and 0.05% MSG The solutions were tasted by a professional sensory panel. Solution A was described as: “salty” and “umami”.

[2] = cited from earlier work; for pungency: compared with capsaicin; for taste: as a dry powder and as an alcoholic or aqueous solution
[3] = system: sensory panel; assay: sweetened 0% fat red fruit yoghurts tasted and evaluated by a sensory panel; type: in vivo
Protocol: Three yoghurts were prepared according to the recipe in table 2. [table] All products were tasted and evaluated by a sensory panel.

[4] = system: sensory panel; assay: tomato soups (10 g powder in 100 ml hot water) tasted and evaluated by a sensory panel; type: in vivo; settings: for perceived saltiness versus product A (control) / taste description: 50% reduced salt
Protocol: [table] 10 Gram of each composition was mixed with 100 ml hot water to obtain tomato soups. The different soups were tasted and evaluated by a sensory panel.

[5] = Yoghurt C: 0.15 microgram per 100 g yoghurt
[6] = product D: 0.3 mg per 100 g tomato soup powder
[7] = Yoghurt B: 0.003 microgram per 100 g yoghurt
[8] = product C: 0.005 mg per 100 g tomato soup powder
[9] = 0.1 ppt in 0.5% salt and 0.05% MSG (Example 4, solution C)
[10] = 1 ppb in 0.5% salt and 0.05% MSG (Example 3, solution E)
[11] = 10 ppt in 0.5% salt and 0.05% MSG (Example 4, solution D)
[12] = 30 ppb in 0.5% salt and 0.05% MSG (Example 3, solution F)

Compound: Nc1nc2c(ncn2[C@@H]2O[C@H](COP(=O)(O)O)[C@@H](O)[C@H]2O)c(=O)[nH]1 [GMP, guanosine 5′-monophosphate, reference compound]
taste description ([1]; 1 ppm in 0.5% salt and 0.05% MSG (Example 3, solution B)): “sweet”, “lingering umami”

Compound: o-tolylvanillylthiourea
pungency [2]: property of pungency but to a lesser degree than capsaicin

Compound: COc1cc(CNC(N)=S)ccc1O [vanillylthiourea]
taste [2]: tasteless

Compound: CC(O)C(=O)Nc1nc2c(ncn2[C@@H]2O[C@H](COP(=O)(O)O)[C@@H](O)[C@H]2O)c(=O)[nH]1 (stereo partly drawn) [lactoyl-GMP, reference compound]
preference versus product A (yoghurt without modulator) [3, 5]: clearly preferred over product A
taste description [3, 5]: sweet, fuller, more natural berry-like, fruity and more balanced flavour
preference versus product B (50% reduced salt) [4, 6]: clearly preferred over product B
perceived saltiness versus product A (control) [4, 6]: comparable to that of product A
taste description [4, 6]: “more taste”, “more impact”, “more kokumi”, “long lasting” and “salivating”
taste description ([1]; 0.6 ppb in 0.5% salt and 0.05% MSG): “sweet”, “lingering umami”, “more salivating”
taste strength compared with solution C (0.2 ppm process flavour containing 0.3% lactoyl-GMP) ([1]; 0.6 ppb in 0.5% salt and 0.05% MSG (Example 3, solution D)): stronger than C

Compound: COc1cc(CNC(N)=O)ccc1O [Vanillylurea]
taste [2]: tasteless

Compound: phenylvanillylthiourea
taste [2]: tasteless
pungency [2]: property of pungency but to a lesser degree than capsaicin

taste strength compared with solution D (0.6 ppb lactoyl-GMP) [1, 10]: stronger than D
strength of the taste compared with solution B (0.6 ppb lactoyl-GMP) [1, 11]: comparable
taste strength compared with solution E (1 ppb acetyl-GMP) [1, 12]: stronger than E
Compound: CC(=O)Nc1nc2c(ncn2[C@@H]2O[C@H](COP(=O)(O)O)[C@@H](O)[C@H]2O)c(=O)[nH]1 [acetyl-GMP, N-acetyl-GMP]
preference versus product A (yoghurt without modulator) [3, 7]: clearly preferred over product A
strength compared with product C (0.15 microgram lactoyl-GMP per 100 g) [3, 7]: comparable
taste description [3, 7]: sweet, fuller, more natural berry-like, fruity and more balanced flavour
preference versus product B (50% reduced salt) [4, 8]: clearly preferred over product B
perceived saltiness versus product A (control) [4, 8]: comparable to that of product A
taste description [4, 8]: “more taste”, “more impact”, “more kokumi”, “long lasting” and “salivating”
share of the panel that found this detectable [1, 9]: 40%
taste description [1, 9]: “sweet”, “umami”
taste description [1, 10]: “salivating”, “salty”
taste description ([1]; 1 ppt in 0.5% salt and 0.05% MSG (Example 8, solution C)): “sweet”, “umami”
share of the panel that found this detectable [1, 11]: 100%
taste description [1, 11]: “sweet”, “umami”
taste description [1, 12]: “salivating”, “salty”

Compound: p-tolylvanillylthiourea
pungency [2]: property of pungency but to a lesser degree than capsaicin
